Holding throughout (type): in vivo
Assay [1] has as its system Sensitive Plutella xylostella. Nature of the assay: Indoor test on 3rd-instar larvae of Plutella xylostella, sensitive insects (cabbage leaf dip). Particulars: foliar, read-out: LC50 (50% lethal concentration). As for the experimental part:
(§1) Indoor test on 3rd-instar larvae of Plutella xylostella:
(§2) A wettable powder prepared as in Formulation Example 2 was diluted to a predetermined concentration. Cabbage leaves were dipped for 10 seconds in the resulting dilution and then air dried. The leaves were put into a polyvinyl chloride cup having a capacity of 90 ml together with 3rd-instar larvae of Plutella xylostella. The cup was left to stand in a constant temperature chamber kept at 25° C., and 72 hours later, the number of dead insects was examined. For each test area, the test was repeated twice, and 20 insects were used in each area. The ratio of the dead insects was calculated, and LC50 (50% lethal concentration) values of the test compounds were determined by the method of Bliss.
(§3) The sensitive Plutella xylostella insects in the table were those bred through generations at the Laboratory of Yashima Chemical Industrial Co., Ltd. The resistant ones were hunted at Tsumakoi-mura, Gunma-ken, Japan.

The subject of assay [2] is Resistant Plutella xylostella. Nature of the assay: Indoor test on 3rd-instar larvae of Plutella xylostella, resistant insects (cabbage leaf dip). Particulars: foliar, read-out: LC50 (50% lethal concentration). How it is done: as §1, §2, §3
For assay [3], the system named is Resistant Plutella xylostella. Nature of the assay: Field test on Plutella xylostella (cabbage, spray). To be noted: larvae per 10 heads of cabbage, not sprayed = 100. How it is done: Field test on Plutella xylostella:
On predetermined dates, the number of larvae per 10 heads of cabbage was examined, and the corrected density indices of the test compounds were calculated in accordance with the following equation. [formula]

For another assay, the system named is Thrips palmi. The assay is described as follows: Test on Thrips palmi (potted eggplants, spray). Particulars: eggplants in pots, not sprayed = 100. How it is done: An emulsifiable emulsion prepared as in Formulation Example 3 was diluted with water to a predetermined concentration. The dilution was sprayed on eggplants which were grown in pots and on which Thrips palmi was parasitic, so that the dilution fully dripped on the plant leaves. The number of dead insects was examined at predetermined dates, and the corrected density indices of the test compounds were calculated. For each area, the test was repeated three times.

The structures appear in SMILES notation. ≈ marks a conversion by molar mass, not a printed value. Where two headings read alike, the source gives them in different places.

As to `COP(=O)(NC(C)=O)SC` (centres unmarked) [Acephate, O,S--dimethyl N--acetylphosphoramidothiolate, reference compound], the LC50 in assay [1] (Plutella xylostella, 72 h) was determined as 178 µg/mL (≈ 972 µM). For the same compound, the LC50 in assay [2] (Plutella xylostella, 72 h) came out at 878 µg/mL (≈ 4790 µM). Also, in assay [3] (500 ppm), the “Corrected density index After 3 days” value is 8, the “Corrected density index After 7 days” value was 12 and the “Corrected density index After 14 days” value is reported as 15.

Turning to `CCC(C)c1ccccc1OC(=O)NC` (centres unmarked) [BPMC, 2sec. butylphenylN--methyl carbamate, reference compound], in the assay with Thrips palmi (250 ppm), the “Corrected density index After 1 day” value is 7, the “Corrected density index After 3 days” value worked out at 35 and the “Corrected density index After 7 days” value turned out to be 57. Moreover, in the assay with Thrips palmi (500 ppm), the “Corrected density index After 1 day” value amounted to 2, the “Corrected density index After 3 days” value stood at 15 and the “Corrected density index After 7 days” value was determined as 45.

As to `CC(C)(C(=O)Nc1ccc(Br)cc1)c1ccc(Cl)cc1` [Compound No. 3], the LC50 in assay [1] (Plutella xylostella, 72 h) is 57 µg/mL (≈ 162 µM). Moreover, the LC50 in assay [2] (Plutella xylostella, 72 h) is 51 µg/mL (≈ 145 µM). Besides, in assay [3] (250 ppm), the “Corrected density index After 3 days” value is recorded as 7, the “Corrected density index After 7 days” value is recorded as 2 and the “Corrected density index After 14 days” value is given as 3. In the assay on Thrips palmi (250 ppm), the “Corrected density index After 1 day” value worked out at 16, the “Corrected density index After 3 days” value was 8 and the “Corrected density index After 7 days” value turned out to be 14. In the assay on Thrips palmi (500 ppm), the “Corrected density index After 1 day” value turned out to be 9, the “Corrected density index After 3 days” value was 3 and the “Corrected density index After 7 days” value amounted to 3.

On to `CC(C)(C(=O)Nc1ccc(C(F)(F)F)cc1)c1ccc(Cl)cc1` [Compound No. 4], for which the LC50 stood at 95 µg/mL (≈ 278 µM) in assay [1] (Plutella xylostella, 72 h) and 96 µg/mL (≈ 281 µM) in assay [2] (Plutella xylostella, 72 h). Besides, the “Corrected density index After 3 days” value came out at 7 in assay [3] (250 ppm), 8 in the assay on Thrips palmi (250 ppm) and 4 in the assay on Thrips palmi (500 ppm). Besides, the “Corrected density index After 7 days” value is on record as 1 in assay [3] (250 ppm), 11 with Thrips palmi (250 ppm) and 6 with Thrips palmi (500 ppm). Besides, the “Corrected density index After 14 days” value in assay [3] (250 ppm) is listed as 0. Also, the “Corrected density index After 1 day” value in the assay with Thrips palmi (250 ppm) is on record as 19; in the assay on Thrips palmi (500 ppm), 12.

Consider `CCN(C(=O)C(C)(C)c1ccc(Cl)cc1)c1ccc(Cl)cc1` [Compound No. 7], for which the LC50 in assay [1] (Plutella xylostella, 72 h) stood at 51 µg/mL (≈ 152 µM). Further, the LC50 in assay [2] (Plutella xylostella, 72 h) is 53 µg/mL (≈ 158 µM). Besides, in assay [3] (250 ppm), the “Corrected density index After 3 days” value turned out to be 4, the “Corrected density index After 7 days” value is reported as 0 and the “Corrected density index After 14 days” value is 0. Besides, in the assay on Thrips palmi (250 ppm), the “Corrected density index After 1 day” value was determined as 16, the “Corrected density index After 3 days” value was found to be 9 and the “Corrected density index After 7 days” value is recorded as 13. Moreover, in the assay on Thrips palmi (500 ppm), the “Corrected density index After 1 day” value is given as 10, the “Corrected density index After 3 days” value is given as 2 and the “Corrected density index After 7 days” value was found to be 3.

For the compound `COP(=O)(OC)OC=C(Cl)Cl` [DDVP, 2,2-dichlorovinyl dimethyl phosphate, reference compound], in assay [1] (sensitive Plutella xylostella, 3rd-instar larvae, 72 hours, 25° C., wettable powder dilution, method of Bliss), the LC50 is 103 µg/mL. Besides, in assay [2] (resistant Plutella xylostella, 3rd-instar larvae, 72 hours, 25° C., wettable powder dilution, method of Bliss), the LC50 amounted to 1020 µg/mL. For the same compound, in assay [3] (500 ppm), the “Corrected density index After 3 days” value turned out to be 15, the “Corrected density index After 7 days” value was 52 and the “Corrected density index After 14 days” value amounted to 86.

`CC(C)(C(=O)Nc1ccc(F)cc1)c1ccc(Cl)cc1` [compound 1]: the LC50 is 126 µg/mL (≈ 432 µM) in assay [1] (Plutella xylostella, 72 h) and 123 µg/mL (≈ 422 µM) in assay [2] (Plutella xylostella, 72 h).

For `CC(C)(C(=O)Nc1ccc(Cl)cc1)c1ccc(Cl)cc1` [compound 2, alpha,alpha-dimethyl-p-chlorophenylaceto-p-chloranilide], the LC50 in assay [1] (Plutella xylostella, 72 h) was found to be 101 µg/mL (≈ 328 µM); in assay [2] (Plutella xylostella, 72 h) it was 110 µg/mL (≈ 357 µM). Moreover, the “Corrected density index After 3 days” value in assay [3] (250 ppm) is 10; in the assay with Thrips palmi (250 ppm) it was 14; in the assay on Thrips palmi (500 ppm) it was 10. The “Corrected density index After 7 days” value turned out to be 5 in assay [3] (250 ppm), 14 in the assay on Thrips palmi (250 ppm) and 12 with Thrips palmi (500 ppm). Besides, the “Corrected density index After 14 days” value in assay [3] (250 ppm) was 2. The entries for the “Corrected density index After 1 day” value in the assay with Thrips palmi (250 ppm) and with Thrips palmi (500 ppm) were 16 and 20, respectively.

Turning to `CC(C)(C(=O)Nc1ccc(C#N)cc1)c1ccc(Cl)cc1` [compound 5], the LC50 in assay [1] (Plutella xylostella, 72 h) was determined as 97 µg/mL (≈ 325 µM); in assay [2] (Plutella xylostella, 72 h), 90 µg/mL (≈ 301 µM).

Take `CN(C(=O)C(C)(C)c1ccc(Cl)cc1)c1ccc(Cl)cc1` [compound 6]: the LC50 in assay [1] (Plutella xylostella, 72 h) came out at 61 µg/mL (≈ 189 µM); in assay [2] (Plutella xylostella, 72 h), 60 µg/mL (≈ 186 µM).

As for `CCCN(C(=O)C(C)(C)c1ccc(Cl)cc1)c1ccc(Cl)cc1` [compound 8], the LC50 in assay [1] (Plutella xylostella, 72 h) was 198 µg/mL (≈ 565 µM); in assay [2] (Plutella xylostella, 72 h) it was 204 µg/mL (≈ 582 µM).

As for `CCCCN(C(=O)C(C)(C)c1ccc(Cl)cc1)c1ccc(Cl)cc1` [compound 9], the LC50 worked out at 372 µg/mL (≈ 1020 µM) in assay [1] (Plutella xylostella, 72 h) and 365 µg/mL (≈ 1000 µM) in assay [2] (Plutella xylostella, 72 h).

On to `CCN(C(=O)C(C)(C)c1ccc(Cl)cc1)c1ccc(Br)cc1` [compound 10, alpha,alpha-dimethyl-p-chlorophenylaceto-N-ethyl-p-bromanilide], for which the LC50 was found to be 48 µg/mL (≈ 126 µM) in assay [1] (Plutella xylostella, 72 h) and 46 µg/mL (≈ 121 µM) in assay [2] (Plutella xylostella, 72 h). For the same compound, the results for the “Corrected density index After 3 days” value (in assay [3] (250 ppm); in the assay with Thrips palmi (250 ppm); in the assay with Thrips palmi (500 ppm)) were 5, 12 and 1, respectively. For the same compound, the “Corrected density index After 7 days” value in assay [3] (250 ppm) is recorded as 0; in the assay with Thrips palmi (250 ppm) it was 11; in the assay with Thrips palmi (500 ppm) it was 4. Besides, the “Corrected density index After 14 days” value in assay [3] (250 ppm) stood at 0. Also, the “Corrected density index After 1 day” value with Thrips palmi (250 ppm) is recorded as 12; in the assay with Thrips palmi (500 ppm), 7.

With `CC(C)(C(=O)Nc1ccc(Cl)cc1)c1ccc(F)cc1` [compound 11], the LC50 in assay [1] (Plutella xylostella, 72 h) is 107 µg/mL (≈ 367 µM); in assay [2] (Plutella xylostella, 72 h), 111 µg/mL (≈ 380 µM).

Consider `CC(C)(C(=O)Nc1ccc(C(F)(F)F)cc1)c1ccc(F)cc1` [compound 12], for which the LC50 in assay [1] (Plutella xylostella, 72 h) worked out at 95 µg/mL (≈ 292 µM); in assay [2] (Plutella xylostella, 72 h) it was 110 µg/mL (≈ 338 µM).

`CCN(C(=O)C(C)(C)c1ccc(F)cc1)c1ccc(Cl)cc1` [compound 13]: the LC50 in assay [1] (Plutella xylostella, 72 h) came out at 74 µg/mL (≈ 231 µM); in assay [2] (Plutella xylostella, 72 h), 73 µg/mL (≈ 228 µM).

On to `CCN(C(=O)C(C)(C)c1ccc(F)cc1)c1ccc(Br)cc1` [compound 14], for which the LC50 in assay [1] (Plutella xylostella, 72 h) amounted to 88 µg/mL (≈ 242 µM); in assay [2] (Plutella xylostella, 72 h), 93 µg/mL (≈ 255 µM).

In the case of `CC(C)(C(=O)Nc1ccc(Cl)cc1)c1ccc(Br)cc1` [compound 15], the LC50 in assay [1] (Plutella xylostella, 72 h) came to 137 µg/mL (≈ 388 µM); in assay [2] (Plutella xylostella, 72 h), 129 µg/mL (≈ 366 µM).

Turning to `CC(C)(C(=O)Nc1ccc(Cl)cc1)c1ccccc1F` [compound 16], the LC50 in assay [1] (Plutella xylostella, 72 h) is 320 µg/mL (≈ 1100 µM); in assay [2] (Plutella xylostella, 72 h) it was 331 µg/mL (≈ 1130 µM).

Regarding `CC(C)(C(=O)Nc1ccc(C(F)(F)F)cc1)c1ccccc1F` [compound 17], the LC50 amounted to 281 µg/mL (≈ 864 µM) in assay [1] (Plutella xylostella, 72 h) and 256 µg/mL (≈ 787 µM) in assay [2] (Plutella xylostella, 72 h).

As to `CN(C(=O)C(C)(C)c1ccccc1F)c1ccc(Cl)cc1` [compound 18], the LC50 in assay [1] (Plutella xylostella, 72 h) was 213 µg/mL (≈ 697 µM); in assay [2] (Plutella xylostella, 72 h), 211 µg/mL (≈ 690 µM).

For the compound `CC(C)(C(=O)Nc1ccc(Cl)cc1)c1ccc(Cl)cc1Cl` [compound 19], the LC50 in assay [1] (Plutella xylostella, 72 h) is 119 µg/mL (≈ 347 µM); in assay [2] (Plutella xylostella, 72 h), 106 µg/mL (≈ 309 µM).

As for `CC(C)(C(=O)Nc1ccc(F)cc1)c1ccc(Cl)cc1Cl` [compound 20], the LC50 in assay [1] (Plutella xylostella, 72 h) is 122 µg/mL (≈ 374 µM); in assay [2] (Plutella xylostella, 72 h) it was 128 µg/mL (≈ 392 µM).

(Values after patent US4582934A, “Alpha,alpha-dimethylphenylacetanilide derivatives, process for production thereof, and use thereof as insecticide” (Yashima Chemical Industrial Co., Ltd., priority 1983, dated 1986).)
